# Measured values reported in patent US9637483B2, “Heterocyclic compound” (TAKEDA PHARMACEUTICAL COMPANY LIMITED, priority 2013, dated 2017).
# Legend:
# Type in all cases: biochemical
# [1] = molecular target: T1, JAK2 (Homo sapiens, UniProt O60674); assay: JAK2 enzyme inhibition test (LANCE method); conditions: 1 μM test compound; read-out: JAK2 enzyme inhibitory activity (%, 1 μM)
# T1 construct: purchased Invitrogen
# In short: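 Recombinant JAK2 (6 ng/mL solution) phosphorylated ULight-JAK1 peptide (300 nM solution) with ATP (45 μM solution) in pH 7.5 HEPES/MgCl2/DTT buffer for 1 hr at room temperature. After EDTA stop and europium anti-phosphotyrosine antibody for 1 hr, TR-FRET read at 665 nm; inhibition relative to enzyme-free wells as 100%.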
# [2] = molecular target: T2, TYK2 (Homo sapiens, UniProt P29597); assay: TYK2 enzyme inhibition test (LANCE method); conditions: 1 μM test compound; read-out: TYK2 enzyme inhibitory activity (%, 1 μM)
# T2 construct: purchased Invitrogen
# T2 sequence (P29597 whole entry): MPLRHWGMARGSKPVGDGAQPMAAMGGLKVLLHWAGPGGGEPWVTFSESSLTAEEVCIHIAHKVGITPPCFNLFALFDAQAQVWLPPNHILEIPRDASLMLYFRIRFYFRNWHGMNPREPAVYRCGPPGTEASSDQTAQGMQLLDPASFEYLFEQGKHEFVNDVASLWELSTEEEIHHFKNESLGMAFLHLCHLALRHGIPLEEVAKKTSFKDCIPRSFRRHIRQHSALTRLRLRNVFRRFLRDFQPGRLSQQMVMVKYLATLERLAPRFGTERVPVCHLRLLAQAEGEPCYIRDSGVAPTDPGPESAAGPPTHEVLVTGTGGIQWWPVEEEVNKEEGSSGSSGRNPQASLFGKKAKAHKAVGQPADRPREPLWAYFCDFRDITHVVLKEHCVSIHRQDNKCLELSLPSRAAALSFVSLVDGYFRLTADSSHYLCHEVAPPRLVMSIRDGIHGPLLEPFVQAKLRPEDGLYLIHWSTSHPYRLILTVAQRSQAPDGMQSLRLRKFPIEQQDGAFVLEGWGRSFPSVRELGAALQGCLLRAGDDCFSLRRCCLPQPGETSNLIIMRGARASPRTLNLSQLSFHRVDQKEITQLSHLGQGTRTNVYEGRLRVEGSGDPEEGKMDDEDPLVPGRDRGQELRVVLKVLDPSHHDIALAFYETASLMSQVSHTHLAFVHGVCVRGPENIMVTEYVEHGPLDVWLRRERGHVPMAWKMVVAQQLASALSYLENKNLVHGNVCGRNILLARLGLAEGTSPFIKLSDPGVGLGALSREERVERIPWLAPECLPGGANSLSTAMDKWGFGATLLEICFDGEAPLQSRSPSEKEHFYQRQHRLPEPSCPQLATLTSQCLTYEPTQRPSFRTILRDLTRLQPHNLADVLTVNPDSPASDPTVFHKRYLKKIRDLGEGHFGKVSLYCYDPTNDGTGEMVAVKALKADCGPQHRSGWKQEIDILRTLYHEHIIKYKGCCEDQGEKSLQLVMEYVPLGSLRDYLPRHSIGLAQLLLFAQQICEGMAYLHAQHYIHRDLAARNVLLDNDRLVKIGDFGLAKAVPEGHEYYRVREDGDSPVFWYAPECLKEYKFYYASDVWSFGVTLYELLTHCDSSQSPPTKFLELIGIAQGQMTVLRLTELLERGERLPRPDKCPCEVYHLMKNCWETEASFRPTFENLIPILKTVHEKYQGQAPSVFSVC
# In short: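 Recombinant TYK2 (375 ng/mL working solution) with ULight-JAK1 peptide (300 nM working solution) and ATP (30 μM working solution) in HEPES pH 7.5 buffer with MgCl2, EGTA, DTT, Tween20, BSA, reacted 1 h at RT. EDTA-stopped, Eu-anti-phosphotyrosine TR-FRET read at 665 nm; inhibition relative to enzyme-free wells as 100%.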
# [3] = molecular target: T3, JAK1 (Homo sapiens, UniProt P23458); assay: JAK1 enzyme inhibition test (LANCE method); conditions: 1 μM test compound; read-out: JAK1 enzyme inhibitory activity (%, 1 μM)
# T3 construct: purchased Invitrogen
# T3 sequence (P23458 whole entry): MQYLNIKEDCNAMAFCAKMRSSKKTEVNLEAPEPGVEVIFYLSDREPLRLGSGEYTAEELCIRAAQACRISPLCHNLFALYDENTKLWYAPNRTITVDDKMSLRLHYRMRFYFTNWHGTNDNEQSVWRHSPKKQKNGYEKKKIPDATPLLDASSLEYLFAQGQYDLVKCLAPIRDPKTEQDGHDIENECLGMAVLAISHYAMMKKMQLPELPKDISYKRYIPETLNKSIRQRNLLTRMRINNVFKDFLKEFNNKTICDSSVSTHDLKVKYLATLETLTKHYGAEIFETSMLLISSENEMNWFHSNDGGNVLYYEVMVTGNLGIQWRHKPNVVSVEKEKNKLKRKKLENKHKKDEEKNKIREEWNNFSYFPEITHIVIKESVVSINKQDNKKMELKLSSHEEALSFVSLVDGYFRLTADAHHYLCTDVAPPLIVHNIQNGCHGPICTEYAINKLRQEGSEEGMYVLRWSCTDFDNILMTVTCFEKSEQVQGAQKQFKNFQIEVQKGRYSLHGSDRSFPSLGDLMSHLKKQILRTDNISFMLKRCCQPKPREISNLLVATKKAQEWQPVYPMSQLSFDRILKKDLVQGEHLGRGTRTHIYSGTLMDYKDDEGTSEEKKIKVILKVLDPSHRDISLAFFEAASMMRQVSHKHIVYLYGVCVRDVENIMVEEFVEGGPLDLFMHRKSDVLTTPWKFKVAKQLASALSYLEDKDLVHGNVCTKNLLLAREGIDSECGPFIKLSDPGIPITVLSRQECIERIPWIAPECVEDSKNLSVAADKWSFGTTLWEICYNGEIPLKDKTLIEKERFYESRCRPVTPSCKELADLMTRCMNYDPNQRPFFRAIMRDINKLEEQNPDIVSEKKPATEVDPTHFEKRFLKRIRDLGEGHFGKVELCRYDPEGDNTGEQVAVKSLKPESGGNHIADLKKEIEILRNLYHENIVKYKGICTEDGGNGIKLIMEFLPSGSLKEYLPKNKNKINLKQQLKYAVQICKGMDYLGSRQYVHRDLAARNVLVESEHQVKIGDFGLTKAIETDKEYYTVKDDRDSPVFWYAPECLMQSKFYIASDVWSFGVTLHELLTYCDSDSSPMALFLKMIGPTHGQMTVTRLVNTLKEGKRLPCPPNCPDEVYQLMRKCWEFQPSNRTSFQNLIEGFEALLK
# In short: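 TR-FRET (LANCE) with ULight-JAK1 peptide (300 nM working solution) and ATP (150 μM working solution) in HEPES pH 7.5, MgCl2, EGTA, DTT buffer; 1 h at room temperature. EDTA stop plus Eu-anti-phosphotyrosine antibody, 665 nm read after 1 h. Inhibition relative to enzyme-free wells as 100%.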
# [4] = molecular target: T4, JAK3 (Homo sapiens, UniProt P52333); assay: JAK3 enzyme inhibition test (LANCE method); conditions: 1 μM test compound; read-out: JAK3 enzyme inhibitory activity (%, 1 μM)
# T4 construct: purchased Invitrogen
# T4 sequence (P52333 1-1124): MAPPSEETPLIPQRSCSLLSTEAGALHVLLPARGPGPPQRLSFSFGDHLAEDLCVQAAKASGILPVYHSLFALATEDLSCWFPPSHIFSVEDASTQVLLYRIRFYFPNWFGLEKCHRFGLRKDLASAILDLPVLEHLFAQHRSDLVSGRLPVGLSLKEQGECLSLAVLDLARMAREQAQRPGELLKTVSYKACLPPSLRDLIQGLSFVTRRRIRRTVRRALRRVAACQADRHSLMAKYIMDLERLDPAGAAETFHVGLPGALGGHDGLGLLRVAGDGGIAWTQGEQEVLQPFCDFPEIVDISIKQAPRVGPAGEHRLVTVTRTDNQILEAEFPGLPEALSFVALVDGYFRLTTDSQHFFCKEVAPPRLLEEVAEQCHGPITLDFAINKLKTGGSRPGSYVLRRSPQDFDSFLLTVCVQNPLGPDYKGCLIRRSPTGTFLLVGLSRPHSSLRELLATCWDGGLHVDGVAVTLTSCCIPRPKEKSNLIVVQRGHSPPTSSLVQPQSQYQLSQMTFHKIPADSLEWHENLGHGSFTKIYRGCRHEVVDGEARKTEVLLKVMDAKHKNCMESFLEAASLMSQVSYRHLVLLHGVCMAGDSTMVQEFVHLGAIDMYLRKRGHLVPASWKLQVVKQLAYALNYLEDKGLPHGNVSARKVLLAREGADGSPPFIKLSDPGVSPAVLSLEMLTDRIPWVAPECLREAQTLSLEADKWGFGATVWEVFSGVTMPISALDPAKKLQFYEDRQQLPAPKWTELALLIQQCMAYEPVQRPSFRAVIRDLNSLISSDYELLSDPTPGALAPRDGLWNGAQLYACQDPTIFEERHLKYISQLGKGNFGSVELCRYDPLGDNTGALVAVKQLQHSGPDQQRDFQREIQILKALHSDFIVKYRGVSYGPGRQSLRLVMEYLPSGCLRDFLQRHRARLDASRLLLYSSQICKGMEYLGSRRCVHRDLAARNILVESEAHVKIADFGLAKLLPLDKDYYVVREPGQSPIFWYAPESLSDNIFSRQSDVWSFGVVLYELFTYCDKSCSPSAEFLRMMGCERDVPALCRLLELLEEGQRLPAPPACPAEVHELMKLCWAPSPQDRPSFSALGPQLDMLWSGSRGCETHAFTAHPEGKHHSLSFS
# In short: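 Recombinant JAK3 (12 ng/mL solution) with ULight-JAK1 peptide (300 nM solution) and ATP (15 μM solution) in HEPES pH 7.5 buffer, 1 h at room temperature. EDTA stop with Eu-anti-phosphotyrosine antibody; TR-FRET at 665 nm. Inhibition relative to enzyme-free wells as 100%.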
# T1 sequence (O60674 whole entry): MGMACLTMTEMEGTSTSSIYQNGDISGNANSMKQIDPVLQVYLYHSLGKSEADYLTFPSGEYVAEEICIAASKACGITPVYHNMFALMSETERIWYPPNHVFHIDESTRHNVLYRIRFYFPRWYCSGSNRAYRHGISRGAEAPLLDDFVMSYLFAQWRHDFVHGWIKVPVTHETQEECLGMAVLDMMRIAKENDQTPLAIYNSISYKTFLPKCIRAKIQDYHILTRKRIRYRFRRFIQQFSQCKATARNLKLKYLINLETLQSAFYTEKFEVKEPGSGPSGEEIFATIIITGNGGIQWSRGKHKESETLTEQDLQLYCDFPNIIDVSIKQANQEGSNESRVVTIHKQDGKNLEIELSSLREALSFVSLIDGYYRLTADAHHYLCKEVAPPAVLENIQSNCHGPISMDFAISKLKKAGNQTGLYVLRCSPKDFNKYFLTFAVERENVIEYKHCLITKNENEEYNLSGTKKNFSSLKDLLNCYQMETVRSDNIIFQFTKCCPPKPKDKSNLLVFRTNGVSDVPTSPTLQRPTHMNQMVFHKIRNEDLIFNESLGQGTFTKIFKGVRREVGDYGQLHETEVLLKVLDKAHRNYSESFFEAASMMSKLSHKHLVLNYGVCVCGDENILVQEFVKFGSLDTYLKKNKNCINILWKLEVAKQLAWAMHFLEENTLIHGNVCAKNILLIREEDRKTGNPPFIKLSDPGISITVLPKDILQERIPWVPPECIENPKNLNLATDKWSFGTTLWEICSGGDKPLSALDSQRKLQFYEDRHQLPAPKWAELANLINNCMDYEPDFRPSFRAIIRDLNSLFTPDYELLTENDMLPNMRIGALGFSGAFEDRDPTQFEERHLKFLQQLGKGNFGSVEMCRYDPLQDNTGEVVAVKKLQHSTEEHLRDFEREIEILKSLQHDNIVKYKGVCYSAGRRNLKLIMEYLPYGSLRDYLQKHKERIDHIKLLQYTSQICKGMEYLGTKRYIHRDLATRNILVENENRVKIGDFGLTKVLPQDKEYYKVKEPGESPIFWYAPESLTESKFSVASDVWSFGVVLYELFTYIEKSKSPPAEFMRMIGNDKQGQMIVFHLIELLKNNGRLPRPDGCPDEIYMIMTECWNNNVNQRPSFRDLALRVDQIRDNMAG
inhibition at 1 µM [1] [%],inhibition at 1 µM [2] [%],inhibition at 1 µM [3] [%],inhibition at 1 µM [4] [%],SMILES
100,101,99,100,"Cn1nc(-c2cn(C(C3CC3)C3CC3)c(=O)c3c(N)n[nH]c23)cc1N1CCN2CCC[C@H]2C1 [Example 162, 3-amino-5-(dicyclopropylmethyl)-7-(5-((8aS)-hexahydropyrrolo[1,2-a]pyrazin-2(1H)-yl)-1-methyl-1H-pyrazol-3-yl)-1,5-dihydro-4H-pyrazolo[4,3-c]pyridin-4-one]"
100,101,100,100,"Cn1nc(-c2cn(C(C3CC3)C3CC3)c(=O)c3c(N)n[nH]c23)cc1N1CCN2CCC[C@@H]2C1 [Example 163, 3-amino-5-(dicyclopropylmethyl)-7-(5-((8aR)-hexahydropyrrolo[1,2-a]pyrazin-2(1H)-yl)-1-methyl-1H-pyrazol-3-yl)-1,5-dihydro-4H-pyrazolo[4,3-c]pyridin-4-one]"
99,101,99,100,"CO[C@@H]1CCN(c2cc(-c3cn(C(C4CC4)C4CC4)c(=O)c4c(N)n[nH]c34)nn2C)C1 [Example 164, 3-amino-5-(dicyclopropylmethyl)-7-(5-((3R)-3-methoxypyrrolidin-1-yl)-1-methyl-1H-pyrazol-3-yl)-1,5-dihydro-4H-pyrazolo[4,3-c]pyridin-4-one]"
98,100,100,100,"Cn1nc(-c2cn(C(C3CC3)C3CC3)c(=O)c3c(N)n[nH]c23)cc1C(F)(F)F [Example 165, 3-amino-5-(dicyclopropylmethyl)-7-(1-methyl-5-(trifluoromethyl)-1H-pyrazol-3-yl)-1,5-dihydro-4H-pyrazolo[4,3-c]pyridin-4-one]"
99,101,100,100,"Cn1nc(-c2cn(C(C3CC3)C3CC3)c(=O)c3c(N)n[nH]c23)cc1N1CC[C@H](O)C1 [Example 166, 3-amino-5-(dicyclopropylmethyl)-7-(5-((3S)-3-hydroxypyrrolidin-1-yl)-1-methyl-1H-pyrazol-3-yl)-1,5-dihydro-4H-pyrazolo[4,3-c]pyridin-4-one]"
99,101,100,100,"CO[C@H]1CCN(c2cc(-c3cn(C(C4CC4)C4CC4)c(=O)c4c(N)n[nH]c34)nn2C)C1 [Example 167, 3-amino-5-(dicyclopropylmethyl)-7-(5-((3S)-3-methoxypyrrolidin-1-yl)-1-methyl-1H-pyrazol-3-yl)-1,5-dihydro-4H-pyrazolo[4,3-c]pyridin-4-one]"
94,101,98,100,"Cn1nc(-c2cn(C(C3CC3)C3CC3)c(=O)c3c(N)n[nH]c23)cc1N1CCC[C@H]1CO [Example 168, 3-amino-5-(dicyclopropylmethyl)-7-(5-((2S)-2-(hydroxymethyl)pyrrolidin-1-yl)-1-methyl-1H-pyrazol-3-yl)-1,5-dihydro-4H-pyrazolo[4,3-c]pyridin-4-one]"
98,98,98,99,"Cn1nc(-c2cn(C(C3CC3)C3CC3)c(=O)c3c(N)n[nH]c23)cc1N1CC[C@@H](O)C1 [Example 169, 3-amino-5-(dicyclopropylmethyl)-7-(5-((3R)-3-hydroxypyrrolidin-1-yl)-1-methyl-1H-pyrazol-3-yl)-1,5-dihydro-4H-pyrazolo[4,3-c]pyridin-4-one]"
99,98,99,99,"Cn1nc(-c2cn(C(C3CC3)C3CC3)c(=O)c3c(N)n[nH]c23)cc1N1CCC(F)(F)C1 [Example 170, 3-amino-5-(dicyclopropylmethyl)-7-(5-(3,3-difluoropyrrolidin-1-yl)-1-methyl-1H-pyrazol-3-yl)-1,5-dihydro-4H-pyrazolo[4,3-c]pyridin-4-one]"
94,98,93,98,"CN(C[C@H]1CCCN1c1cc(-c2cn(C(C3CC3)C3CC3)c(=O)c3c(N)n[nH]c23)nn1C)C(=O)OC(C)(C)C [Example 171, tert-butyl(((2R)-1-(3-(3-amino-5-(dicyclopropylmethyl)-4-oxo-4,5-dihydro-1H-pyrazolo[4,3-c]pyridin-7-yl)-1-methyl-1H-pyrazol-5-yl)pyrrolidin-2-yl)methyl)methylcarbamate]"
98,98,93,98,"CNC[C@H]1CCCN1c1cc(-c2cn(C(C3CC3)C3CC3)c(=O)c3c(N)n[nH]c23)nn1C [Example 172, 3-amino-5-(dicyclopropylmethyl)-7-(1-methyl-5-((2R)-2-((methylamino)methyl)pyrrolidin-1-yl)-1H-pyrazol-3-yl)-1,5-dihydro-4H-pyrazolo[4,3-c]pyridin-4-one]"
96,98,98,99,"Cc1cc(-c2cn(C(C3CC3)C3CC3)c(=O)c3c(N)n[nH]c23)nn1C [Example 173, 3-amino-5-(dicyclopropylmethyl)-7-(1,5-dimethyl-1H-pyrazol-3-yl)-1,5-dihydro-4H-pyrazolo[4,3-c]pyridin-4-one]"
98,98,99,99,"Cn1nc(-c2cn(C(C3CC3)C3CC3)c(=O)c3c(N)n[nH]c23)cc1C(C)(C)O [Example 174, 3-amino-5-(dicyclopropylmethyl)-7-(5-(2-hydroxypropan-2-yl)-1-methyl-1H-pyrazol-3-yl)-1,5-dihydro-4H-pyrazolo[4,3-c]pyridin-4-one]"
97,98,96,98,"CC(=O)N(C)C[C@H]1CCCN1c1cc(-c2cn(C(C3CC3)C3CC3)c(=O)c3c(N)n[nH]c23)nn1C [Example 175, N-(((2R)-1-(3-(3-amino-5-(dicyclopropylmethyl)-4-oxo-4,5-dihydro-1H-pyrazolo[4,3-c]pyridin-7-yl)-1-methyl-1H-pyrazol-5-yl)pyrrolidin-2-yl)methyl)-N-methylacetamide]"
98,98,97,99,"CN(C[C@H]1CCCN1c1cc(-c2cn(C(C3CC3)C3CC3)c(=O)c3c(N)n[nH]c23)nn1C)S(C)(=O)=O [Example 176, N-(((2R)-1-(3-(3-amino-5-(dicyclopropylmethyl)-4-oxo-4,5-dihydro-1H-pyrazolo[4,3-c]pyridin-7-yl)-1-methyl-1H-pyrazol-5-yl)pyrrolidin-2-yl)methyl)-N-methylmethanesulfonamide]"
